Earlier results, collected in US20200078455A1, “MESOTHELIN VACCINE FOR OVARIAN CANCER PREVENTION” (SRI INTERNATIONAL, priority 2017, published 2020).

B1: Abagovomab (antibody, chains of the INN, looked up, V domains shown)
VH: QVKLQESGAELARPGASVKLSCKASGYTFTNYWMQWVKQRPGQGLDWIGAIYPGDGNTRYTHKFKGKATLTADKSSSTAYMQLSSLASEDSGVYYCARGEGNYAWFAYWGQGTTVTVSS
VL: DIELTQSPASLSASVGETVTITCQASENIYSYLAWHQQKQGKSPQLLVYNAKTLAGGVSSRFSGSGSGTHFSLKIKSLQPEDFGIYYCQHHYGILPTFGGGTKLEIK
notes: ovarian cancer vaccine that has been studied

Row | Molecule | recurrence rate (compared with women who received a placebo) | immune response (women with ovarian cancer) | survival (women with ovarian cancer)
1 | Oregovomab | no difference in the recurrence rate | elicit an immune response | 
2 | B1 |  | elicit an immune response | not clear that this leads to longer survival
